Experimental data reported in PMC7265341, “Quantifying CDK inhibitor selectivity in live cells” (Nature Communications, 2020).
Read-outs that look alike come from different tables or passages of the source.

Tests used:
CDK14/Cyclin Y = CDK14/Cyclin Y (Homo sapiens, UniProt O94921); assay: NanoBRET live-cell target engagement, CDK14-NanoLuc/Cyclin Y in HEK-293; assay type: binding; details: for inhibition at 10 µM: read-out: CDK14/Y Inhibition at 10µM (%), 10µM
CDK18/Cyclin Y = CDK18/Cyclin Y (Homo sapiens, UniProt Q07002); assay: NanoBRET live-cell target engagement, CDK18-NanoLuc/Cyclin Y in HEK-293; assay type: binding; details: for IC50: read-out: CDK18/Y IC50; for inhibition at 10 µM: read-out: CDK18/Y Inhibition at 10µM (%), 10µM
CDK7 = CDK7 (Homo sapiens, UniProt P50613); assay: NanoBRET live-cell target engagement, NanoLuc-CDK7 in HEK-293; assay type: binding; details: for inhibition at 10 µM: read-out: CDK7 Inhibition at 10µM (%); for CDK7 Occupancy (%): Panel A
Sequence of CDK7 (P50613 whole entry): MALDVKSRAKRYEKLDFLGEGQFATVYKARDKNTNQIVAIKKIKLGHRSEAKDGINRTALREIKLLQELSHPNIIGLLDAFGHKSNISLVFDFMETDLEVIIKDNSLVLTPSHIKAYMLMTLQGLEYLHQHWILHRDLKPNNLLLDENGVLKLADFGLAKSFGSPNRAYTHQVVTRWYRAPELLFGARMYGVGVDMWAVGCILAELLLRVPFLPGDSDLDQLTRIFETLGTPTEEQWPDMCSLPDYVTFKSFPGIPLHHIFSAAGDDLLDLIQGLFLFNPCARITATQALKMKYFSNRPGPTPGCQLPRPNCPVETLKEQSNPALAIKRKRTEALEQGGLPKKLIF

CDK6/Cyclin D1 = CDK6/Cyclin D1 (Homo sapiens, UniProt Q00534); assay: NanoBRET live-cell target engagement, NanoLuc-CDK6/Cyclin D1 in HEK-293; assay type: binding; details: for inhibition at 10 µM: read-out: CDK6/D1 Inhibition at 10µM (%); for CDK6 Occupancy (%): Panel A
Sequence of CDK6/Cyclin D1 (Q00534 whole entry): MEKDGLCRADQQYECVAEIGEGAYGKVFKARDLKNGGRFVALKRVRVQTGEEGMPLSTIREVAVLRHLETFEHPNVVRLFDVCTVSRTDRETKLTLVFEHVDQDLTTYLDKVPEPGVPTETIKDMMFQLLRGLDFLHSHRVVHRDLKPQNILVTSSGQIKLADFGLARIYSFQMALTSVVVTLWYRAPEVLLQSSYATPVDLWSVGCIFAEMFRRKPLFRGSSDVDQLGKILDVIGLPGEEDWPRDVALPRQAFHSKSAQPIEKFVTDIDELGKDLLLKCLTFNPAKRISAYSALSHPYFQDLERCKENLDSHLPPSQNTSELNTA
Sequence of CDK6/Cyclin D1 (P24385 whole entry partner): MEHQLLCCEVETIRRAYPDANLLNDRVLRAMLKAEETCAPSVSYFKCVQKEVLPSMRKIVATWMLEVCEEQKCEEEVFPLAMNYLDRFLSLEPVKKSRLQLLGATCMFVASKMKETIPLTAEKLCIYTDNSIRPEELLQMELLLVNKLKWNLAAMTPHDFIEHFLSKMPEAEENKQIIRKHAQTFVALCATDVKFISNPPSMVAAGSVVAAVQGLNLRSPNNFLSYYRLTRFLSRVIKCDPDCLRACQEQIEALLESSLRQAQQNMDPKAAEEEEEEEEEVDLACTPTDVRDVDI

CDK16/Cyclin Y = CDK16/Cyclin Y (Homo sapiens, UniProt Q00536); assay: NanoBRET live-cell target engagement, CDK16-NanoLuc/Cyclin Y in HEK-293; assay type: binding; details: for IC50: read-out: CDK16/Y IC50; for inhibition at 10 µM: read-out: CDK16/Y Inhibition at 10µM (%), 10µM
Sequence of CDK16/Cyclin Y (Q00536 whole entry): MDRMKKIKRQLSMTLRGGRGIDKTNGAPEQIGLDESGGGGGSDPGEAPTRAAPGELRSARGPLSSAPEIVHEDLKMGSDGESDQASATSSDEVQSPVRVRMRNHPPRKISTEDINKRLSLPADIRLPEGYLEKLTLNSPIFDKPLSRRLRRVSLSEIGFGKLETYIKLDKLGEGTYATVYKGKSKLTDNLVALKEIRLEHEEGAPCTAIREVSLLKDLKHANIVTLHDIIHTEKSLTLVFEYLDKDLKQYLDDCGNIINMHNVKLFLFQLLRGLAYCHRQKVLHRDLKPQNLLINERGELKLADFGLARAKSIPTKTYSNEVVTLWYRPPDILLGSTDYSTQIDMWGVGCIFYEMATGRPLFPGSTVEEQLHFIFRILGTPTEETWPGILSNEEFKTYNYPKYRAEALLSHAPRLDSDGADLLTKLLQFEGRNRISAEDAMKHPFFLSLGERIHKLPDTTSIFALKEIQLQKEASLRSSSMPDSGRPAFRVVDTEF
Sequence of CDK16/Cyclin Y (Q8ND76 whole entry partner): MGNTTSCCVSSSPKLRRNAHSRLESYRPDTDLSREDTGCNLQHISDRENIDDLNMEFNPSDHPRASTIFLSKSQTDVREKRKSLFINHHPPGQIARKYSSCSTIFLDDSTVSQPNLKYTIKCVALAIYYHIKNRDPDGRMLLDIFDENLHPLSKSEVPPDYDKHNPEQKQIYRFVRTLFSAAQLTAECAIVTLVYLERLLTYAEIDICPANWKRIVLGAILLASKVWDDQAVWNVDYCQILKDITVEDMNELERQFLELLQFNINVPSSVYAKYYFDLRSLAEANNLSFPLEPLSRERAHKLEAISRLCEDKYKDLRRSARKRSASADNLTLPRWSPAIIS

CDK19/Cyclin C = CDK19/Cyclin C (Homo sapiens, UniProt Q9BWU1); assay: NanoBRET live-cell target engagement, NanoLuc-CDK19/Cyclin C in HEK-293; details: read-out: CDK19/C Inhibition at 10µM (%), 10µM
Sequence of CDK19/Cyclin C (Q9BWU1 whole entry): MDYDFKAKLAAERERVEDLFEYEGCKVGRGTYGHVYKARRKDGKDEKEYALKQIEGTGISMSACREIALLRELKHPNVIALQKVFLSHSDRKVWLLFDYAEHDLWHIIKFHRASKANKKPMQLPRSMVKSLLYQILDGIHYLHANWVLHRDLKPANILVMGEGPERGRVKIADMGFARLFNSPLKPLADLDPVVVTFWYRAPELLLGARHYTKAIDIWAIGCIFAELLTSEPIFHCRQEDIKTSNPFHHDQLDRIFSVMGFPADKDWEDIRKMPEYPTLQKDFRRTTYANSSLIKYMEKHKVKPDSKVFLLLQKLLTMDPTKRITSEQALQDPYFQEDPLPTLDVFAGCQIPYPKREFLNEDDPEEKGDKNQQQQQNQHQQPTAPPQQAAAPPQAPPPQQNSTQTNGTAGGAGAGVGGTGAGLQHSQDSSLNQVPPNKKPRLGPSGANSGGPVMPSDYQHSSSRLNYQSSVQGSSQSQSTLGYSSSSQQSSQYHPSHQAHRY
Sequence of CDK19/Cyclin C (P24863 whole entry partner): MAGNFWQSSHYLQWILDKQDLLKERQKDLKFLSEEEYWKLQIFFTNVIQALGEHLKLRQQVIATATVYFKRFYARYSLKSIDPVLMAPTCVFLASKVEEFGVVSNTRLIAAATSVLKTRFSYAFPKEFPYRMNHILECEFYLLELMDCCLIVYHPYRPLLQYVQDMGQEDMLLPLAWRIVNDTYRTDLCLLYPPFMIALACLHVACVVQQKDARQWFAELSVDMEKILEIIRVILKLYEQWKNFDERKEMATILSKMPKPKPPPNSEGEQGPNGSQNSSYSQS

CDK11A/Cyclin L2 = target: T1, CDK11A/Cyclin L2 (Homo sapiens, UniProt Q9UQ88); assay: NanoBRET live-cell target engagement, CDK11A-NanoLuc/Cyclin L2 in HEK-293; assay type: binding; details: read-out: CDK11a/L2 Inhibition at 10µM (%), 10µM
T1 sequence (Q9UQ88 1-783): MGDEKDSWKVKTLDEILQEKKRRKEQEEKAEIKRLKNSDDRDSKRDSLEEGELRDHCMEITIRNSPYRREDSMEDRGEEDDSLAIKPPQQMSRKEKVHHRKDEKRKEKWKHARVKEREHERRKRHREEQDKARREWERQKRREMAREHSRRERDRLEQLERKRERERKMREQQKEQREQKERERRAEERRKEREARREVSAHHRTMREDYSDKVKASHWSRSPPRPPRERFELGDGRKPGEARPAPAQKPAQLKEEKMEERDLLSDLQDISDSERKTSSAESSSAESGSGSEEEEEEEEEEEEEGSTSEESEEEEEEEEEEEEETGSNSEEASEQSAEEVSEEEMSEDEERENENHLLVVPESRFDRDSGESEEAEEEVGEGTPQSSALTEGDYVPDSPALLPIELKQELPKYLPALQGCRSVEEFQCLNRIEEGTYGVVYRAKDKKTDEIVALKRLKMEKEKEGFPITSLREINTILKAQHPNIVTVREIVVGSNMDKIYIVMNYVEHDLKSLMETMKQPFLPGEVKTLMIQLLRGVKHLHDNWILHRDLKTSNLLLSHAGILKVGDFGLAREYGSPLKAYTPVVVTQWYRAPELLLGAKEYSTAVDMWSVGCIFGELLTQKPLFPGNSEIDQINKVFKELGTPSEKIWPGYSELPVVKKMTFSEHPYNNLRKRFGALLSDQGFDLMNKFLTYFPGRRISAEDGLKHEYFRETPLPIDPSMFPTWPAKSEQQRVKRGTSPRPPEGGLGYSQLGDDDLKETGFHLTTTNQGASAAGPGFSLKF

CDK8/Cyclin C = CDK8/Cyclin C (Homo sapiens, UniProt P49336); assay: NanoBRET live-cell target engagement, NanoLuc-CDK8/Cyclin C in HEK-293; assay type: binding; details: 10µM, read-out: CDK8/C Inhibition at 10µM (%)
Sequence of CDK8/Cyclin C (P49336 whole entry): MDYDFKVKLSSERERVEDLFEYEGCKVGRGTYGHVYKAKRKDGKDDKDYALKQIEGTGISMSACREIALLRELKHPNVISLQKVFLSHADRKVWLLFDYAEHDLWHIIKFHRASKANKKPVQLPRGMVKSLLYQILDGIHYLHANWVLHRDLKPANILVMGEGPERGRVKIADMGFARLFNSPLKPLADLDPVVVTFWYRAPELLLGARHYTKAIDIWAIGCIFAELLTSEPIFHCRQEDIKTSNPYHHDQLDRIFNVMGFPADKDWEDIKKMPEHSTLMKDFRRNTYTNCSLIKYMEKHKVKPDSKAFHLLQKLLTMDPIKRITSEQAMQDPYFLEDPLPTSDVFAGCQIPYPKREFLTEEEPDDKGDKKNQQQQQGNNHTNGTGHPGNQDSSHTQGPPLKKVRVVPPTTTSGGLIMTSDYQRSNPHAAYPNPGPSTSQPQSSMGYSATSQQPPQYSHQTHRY
Sequence of CDK8/Cyclin C (P24863 whole entry partner): as the sequence (P24863 whole entry partner) above

CDK9/Cyclin K = CDK9/Cyclin K (Homo sapiens, UniProt P50750); assay: NanoBRET live-cell target engagement, NanoLuc-CDK9/Cyclin K in HEK-293; assay type: binding; details: 10µM, read-out: CDK9/K Inhibition at 10µM (%)
Sequence of CDK9/Cyclin K (P50750 whole entry): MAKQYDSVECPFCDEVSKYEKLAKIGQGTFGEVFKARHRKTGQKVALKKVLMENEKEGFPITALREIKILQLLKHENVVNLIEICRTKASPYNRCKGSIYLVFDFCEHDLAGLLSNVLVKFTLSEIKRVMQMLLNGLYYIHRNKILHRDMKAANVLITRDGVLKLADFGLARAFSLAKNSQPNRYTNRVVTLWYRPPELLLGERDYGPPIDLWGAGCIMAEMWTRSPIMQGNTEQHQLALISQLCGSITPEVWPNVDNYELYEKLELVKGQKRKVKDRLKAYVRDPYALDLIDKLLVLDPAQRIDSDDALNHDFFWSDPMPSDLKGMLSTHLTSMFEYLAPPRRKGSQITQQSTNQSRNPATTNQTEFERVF
Sequence of CDK9/Cyclin K (O75909 whole entry partner): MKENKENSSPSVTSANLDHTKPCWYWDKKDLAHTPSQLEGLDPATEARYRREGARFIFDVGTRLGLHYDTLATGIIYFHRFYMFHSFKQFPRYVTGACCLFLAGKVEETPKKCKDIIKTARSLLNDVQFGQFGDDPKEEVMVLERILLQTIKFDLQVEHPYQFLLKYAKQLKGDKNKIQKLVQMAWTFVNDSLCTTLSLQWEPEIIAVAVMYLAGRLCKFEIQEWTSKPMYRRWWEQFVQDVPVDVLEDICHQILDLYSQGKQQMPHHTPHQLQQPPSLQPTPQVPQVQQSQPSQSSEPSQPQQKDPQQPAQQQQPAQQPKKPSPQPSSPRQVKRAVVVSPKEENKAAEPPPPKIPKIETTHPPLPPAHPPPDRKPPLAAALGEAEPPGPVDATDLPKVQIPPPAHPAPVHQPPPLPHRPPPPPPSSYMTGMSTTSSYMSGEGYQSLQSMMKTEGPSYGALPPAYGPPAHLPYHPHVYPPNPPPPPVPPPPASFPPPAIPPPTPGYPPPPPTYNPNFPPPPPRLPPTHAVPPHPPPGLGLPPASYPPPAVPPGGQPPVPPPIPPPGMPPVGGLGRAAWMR

[1] = LOG10([RGB-286638]) 0.045757 LOG10(µM)
[2] = LOG10([RGB-286638]) 0.522879 LOG10(µM)
[3] = LOG10([RGB-286638]) 1 LOG10(µM)
[4] = LOG10([RGB-286638]) -0.43136 LOG10(µM)
[5] = LOG10([RGB-286638]) -0.90849 LOG10(µM)
[6] = LOG10([RGB-286638]) -1.38561 LOG10(µM)
[7] = LOG10([RGB-286638]) -1.86273 LOG10(µM)
[8] = LOG10([RGB-286638]) -2.33985 LOG10(µM)
[9] = LOG10([RGB-286638]) -2.81697 LOG10(µM)
[10] = LOG10([RGB-286638]) -3.29409 LOG10(µM)
[11] = LOG10([RGB-286638]) -3.77121 LOG10(µM)

Sequence of CDK14/Cyclin Y (O94921 whole entry): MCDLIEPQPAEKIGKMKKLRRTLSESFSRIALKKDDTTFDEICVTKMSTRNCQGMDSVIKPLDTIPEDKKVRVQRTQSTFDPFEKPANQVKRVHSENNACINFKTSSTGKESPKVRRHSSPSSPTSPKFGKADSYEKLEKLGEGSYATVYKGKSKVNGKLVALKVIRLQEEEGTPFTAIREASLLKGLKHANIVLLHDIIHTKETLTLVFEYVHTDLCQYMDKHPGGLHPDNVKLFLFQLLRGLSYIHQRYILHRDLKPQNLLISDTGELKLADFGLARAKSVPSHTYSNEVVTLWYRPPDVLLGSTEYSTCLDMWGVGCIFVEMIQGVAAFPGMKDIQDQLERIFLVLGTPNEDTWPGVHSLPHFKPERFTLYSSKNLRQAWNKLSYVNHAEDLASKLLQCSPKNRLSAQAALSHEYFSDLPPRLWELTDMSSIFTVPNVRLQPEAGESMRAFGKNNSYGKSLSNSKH
Sequence of CDK14/Cyclin Y (Q8ND76 whole entry partner): as the sequence (Q8ND76 whole entry partner) above

COCCN1CCN(Cc2ccc(-c3n[nH]c4c3C(=O)c3c(NC(=O)NN5CCOCC5)cccc3-4)cc2)CC1 [RGB286638]
IC50 (CDK14/Cyclin Y; average (± SEM where n=3), read-out: CDK14/Y IC50): 31 nM
IC50 (CDK14/Cyclin Y; independent experiment 1, read-out: CDK14/Y IC50): 30 nM
IC50 (CDK14/Cyclin Y; independent experiment 2, read-out: CDK14/Y IC50): 31 nM
IC50 (CDK14/Cyclin Y; live HEK-293, 2 h, mean ± S.E.M. (n=3) or mean (n=2), read-out: IC50 for CDK/cyclin complexes, CDK14/Y): 31 nM
inhibition at 10 µM (CDK14/Cyclin Y; average of experiments): 95.9%
inhibition at 10 µM (CDK14/Cyclin Y; independent experiment 1): 94.1%
inhibition at 10 µM (CDK14/Cyclin Y; independent experiment 2): 97.8%
IC50 (CDK18/Cyclin Y; average (± SEM where n=3)): 10 nM
IC50 (CDK18/Cyclin Y; independent experiment 1): 8.6 nM
IC50 (CDK18/Cyclin Y; independent experiment 2): 11 nM
inhibition at 10 µM (CDK18/Cyclin Y; average of experiments): 99.6%
inhibition at 10 µM (CDK18/Cyclin Y; independent experiment 1): 97.4%
inhibition at 10 µM (CDK18/Cyclin Y; independent experiment 2): 102%
inhibition at 10 µM (CDK7; average of experiments): 93.9%
inhibition at 10 µM (CDK7; independent experiment 1): 91%
inhibition at 10 µM (CDK7; independent experiment 2): 96.7%
CDK7 Occupancy (%) (CDK7; [1]): 97.0886%
CDK7 Occupancy (%) (CDK7; [2]): 96.5823%
CDK7 Occupancy (%) (CDK7; [3]): 97.4684%
CDK7 Occupancy (%) (CDK7; [4]): 93.9241%
CDK7 Occupancy (%) (CDK7; [5]): 87.0886%
CDK7 Occupancy (%) (CDK7; [6]): 72.7848%
CDK7 Occupancy (%) (CDK7; [7]): 53.2911%
CDK7 Occupancy (%) (CDK7; [8]): 31.2658%
CDK7 Occupancy (%) (CDK7; [9]): 12.6582%
CDK7 Occupancy (%) (CDK7; [10]): 6.329%
CDK7 Occupancy (%) (CDK7; [11]): 1.266%
IC50 (CDK7; average (± SEM where n=3), read-out: CDK7 IC50): 16 ± 5 nM
IC50 (CDK7; independent experiment 1, read-out: CDK7 IC50): 11 nM
IC50 (CDK7; independent experiment 2, read-out: CDK7 IC50): 11 nM
IC50 (CDK7; independent experiment 3, read-out: CDK7 IC50): 26 nM
IC50 (CDK7; live HEK-293, 2 h, mean ± S.E.M. (n=3) or mean (n=2), read-out: IC50 for CDK/cyclin complexes, CDK7): 12 to 16 nM
inhibition at 10 µM (CDK6/Cyclin D1; average of experiments): 99.1%
inhibition at 10 µM (CDK6/Cyclin D1; independent experiment 1): 98.9%
inhibition at 10 µM (CDK6/Cyclin D1; independent experiment 2): 99.4%
CDK6 Occupancy (%) (CDK6/Cyclin D1; [1]): 96.3121%
CDK6 Occupancy (%) (CDK6/Cyclin D1; [2]): 95.6738%
CDK6 Occupancy (%) (CDK6/Cyclin D1; [3]): 95.6028%
CDK6 Occupancy (%) (CDK6/Cyclin D1; [4]): 95.1064%
CDK6 Occupancy (%) (CDK6/Cyclin D1; [5]): 90.4255%
CDK6 Occupancy (%) (CDK6/Cyclin D1; [6]): 76.8794%
CDK6 Occupancy (%) (CDK6/Cyclin D1; [7]): 49.6454%
CDK6 Occupancy (%) (CDK6/Cyclin D1; [8]): 19.8582%
CDK6 Occupancy (%) (CDK6/Cyclin D1; [9]): 7.0922%
CDK6 Occupancy (%) (CDK6/Cyclin D1; [10]): 2.128%
CDK6 Occupancy (%) (CDK6/Cyclin D1; [11]): 0%
IC50 (CDK6/Cyclin D1; average (± SEM where n=3), read-out: CDK6/D1 IC50): 12 ± 1 nM
IC50 (CDK6/Cyclin D1; independent experiment 1, read-out: CDK6/D1 IC50): 13 nM
IC50 (CDK6/Cyclin D1; independent experiment 2, read-out: CDK6/D1 IC50): 9.7 nM
IC50 (CDK6/Cyclin D1; independent experiment 3, read-out: CDK6/D1 IC50): 14 nM
IC50 (CDK6/Cyclin D1; live HEK-293, 2 h, mean ± S.E.M. (n=3) or mean (n=2), read-out: IC50 for CDK/cyclin complexes, CDK6/D1): 12 to 16 nM
IC50 (CDK16/Cyclin Y; average (± SEM where n=3)): 5.2 nM
IC50 (CDK16/Cyclin Y; independent experiment 1): 5.4 nM
IC50 (CDK16/Cyclin Y; independent experiment 2): 5 nM
inhibition at 10 µM (CDK16/Cyclin Y; independent experiment 1): 95.2%
inhibition at 10 µM (CDK16/Cyclin Y; independent experiment 2): 92.3%
inhibition at 10 µM (CDK19/Cyclin C; average of experiments): 58%
inhibition at 10 µM (CDK19/Cyclin C; independent experiment 1): 32.8%
inhibition at 10 µM (CDK19/Cyclin C; independent experiment 2): 83.3%
inhibition at 10 µM (CDK11A/Cyclin L2; average of experiments): 41.5%
inhibition at 10 µM (CDK11A/Cyclin L2; independent experiment 1): 16.8%
inhibition at 10 µM (CDK11A/Cyclin L2; independent experiment 2): 66.3%
inhibition at 10 µM (CDK8/Cyclin C; average of experiments): 55.6%
inhibition at 10 µM (CDK8/Cyclin C; independent experiment 1): 21.9%
inhibition at 10 µM (CDK8/Cyclin C; independent experiment 2): 89.3%
inhibition at 10 µM (CDK9/Cyclin K; average of experiments): 94.7%
inhibition at 10 µM (CDK9/Cyclin K; independent experiment 1): 90.7%
inhibition at 10 µM (CDK9/Cyclin K; independent experiment 2): 98.8%
